Laboratory results published in patent publication US10961216B2, “Small molecule modulators of the androgen receptor” (Massachusetts Institute of Technology, priority 2017, dated 2021).

Experiments:
[1] = system: LNCaP (AR+) cell lines; experiment: cell proliferation, LNCaP; format: cell-based, human; conditions: 72 hours
[2] = system: 22Rv1 (AR+) cell lines; experiment: cell proliferation, 22Rv1; format: cell-based; conditions: 72 hours
[3] = system: prostate cancer cell; experiment: prostate cancer cell proliferation, different cancer cell lines; format: cell-based; conditions: 72 hours
[4] = system: DU-145 (AR-) cell lines; experiment: cell proliferation, DU-145; format: cell-based; conditions: 72 hours
[5] = system: PC3 (AR-) cell lines; experiment: cell proliferation, PC3; format: cell-based; conditions: 72 hours
[6] = target: T1, AR-v7 (Homo sapiens, UniProt P10275); experiment: small molecule microarray (SMM) screen, binding to AR-v7; conditions: SMM screened against AR-truncate of NTD and DBD (exons 1-3), with qPCR and reporter assays
T1 construct: screened against a functional AR-truncate composed of the NTD and DBD (exons 1-3)
T1 sequence (P10275 1-628 limits assumed): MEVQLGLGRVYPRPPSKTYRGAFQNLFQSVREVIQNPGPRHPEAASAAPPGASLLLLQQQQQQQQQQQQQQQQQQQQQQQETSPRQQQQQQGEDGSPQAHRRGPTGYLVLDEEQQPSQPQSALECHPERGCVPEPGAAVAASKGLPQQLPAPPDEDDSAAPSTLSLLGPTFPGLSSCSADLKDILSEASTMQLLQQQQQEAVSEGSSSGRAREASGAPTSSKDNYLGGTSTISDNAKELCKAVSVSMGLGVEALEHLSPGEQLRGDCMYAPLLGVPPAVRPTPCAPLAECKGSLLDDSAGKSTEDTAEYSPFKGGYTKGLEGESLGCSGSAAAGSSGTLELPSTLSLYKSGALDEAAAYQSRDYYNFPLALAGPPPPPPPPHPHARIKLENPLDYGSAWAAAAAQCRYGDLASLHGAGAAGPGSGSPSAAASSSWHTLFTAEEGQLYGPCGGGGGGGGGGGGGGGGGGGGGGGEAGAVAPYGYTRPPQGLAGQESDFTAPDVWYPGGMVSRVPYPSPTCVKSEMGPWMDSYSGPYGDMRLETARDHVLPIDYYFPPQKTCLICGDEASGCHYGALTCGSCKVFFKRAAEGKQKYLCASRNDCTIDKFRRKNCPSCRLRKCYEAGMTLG
Text: (§1) To meet this need, compounds binding to AR-v7 were identified using the combination of a small molecule microarray (SMM) screen of 50,000 compounds, qPCR, and reporter assays. The SMM was screened against a functional AR-truncate composed of the NTD and DBD (exons 1-3) and therefore targeting these domains specifically. Candidate compounds were further evaluated in a series of assays designed to show specificity to AR-sensitive cell lines.

[7] = system: VCaP (AR+) cell lines; experiment: cell proliferation, VCaP; format: cell-based; conditions: 72 hours
[8] = aggregation monitoring; format: physicochemical; conditions: at IC50 in RPMI, DMSO, or PBS
Method: All compounds were evaluated in a reporter gene assay (22Rv1 cell line lentiviral transduced with CMV-firefly luciferase) to monitor transcriptional effects and two cell viability assays (Cell-titer blue; PC3 cell line, an AR insensitive cell line, and LNCaP cell line, an AR sensitive cell line). The compounds were also monitored for aggregation.

[9] = system: LNCaP; experiment: LNCaP reporter assay; format: cell-based; conditions: Homo sapiens
Text: as §1
Compounds of the invention may also be identified via a reporter assay. Reporter assays are commonly used to study signaling pathways, gene expression and regulation at the transcriptional level, and the structure of regulatory elements. In general, a reporter assay comprises a regulatory element of interest (e.g. promoter DNA) along with a reporter gene (e.g., gene encoding a reporter protein) cloned into a vector and transfected into cells. In certain embodiments, a reporter is a protein. In certain embodiments, a reporter is a protein with an easily measureable activity. “Easily measureable activity” (or simply “activity”) can refer to any activity that can be measured through methods known in the art, such as fluorescence, enzymatic activities that generate fluorescent or luminescent products, or indirectly with antibodies. […]

- binding to AR-v7 [6]: found to bind to AR-v7
- formation of aggregates [8]: does not form aggregates
- IC50 [9]: 5.43 µM
Compound: O=C(NCCC1C[C@@H]2C=C[C@H]1C2)c1cccc(OC2CCN(C(=O)C3CC3)CC2)c1 (stereo partly drawn) [Compound (1), N-(2-((1S,4S)-bicyclo[2.2.1]hept-5-en-2-yl)ethyl)-3-((1-(cyclopropanecarbonyl)piperidin-4-yl)oxy)benzamide]
- cell proliferation (percent confluence) [1]: stagnates prostate cancer cell proliferation
- cell proliferation (percent confluence) [2]: stagnates prostate cancer cell proliferation
- prostate cancer cell proliferation (relative proliferation, percent confluence) [3]: stagnates prostate cancer cell proliferation
- cell proliferation (percent confluence) [4]: stagnates prostate cancer cell proliferation
- cell proliferation (percent confluence) [5]: stagnates prostate cancer cell proliferation
- cell proliferation (percent confluence) [7]: stagnates prostate cancer cell proliferation
